Measured values from paper PMC4358768 (Journal of medicinal chemistry, 2011).
Each block holds one compound with its values, some of them ahead of it.

Assays:
rP2Y1-GFP receptor = conditions: read-out: EC50 at P2Y1R (rP2Y1-GFP receptor); cited from earlier work
tP2Y1 receptor = tP2Y1 receptor (Meleagris gallopavo, UniProt P49652); assay: [Ca2+]i elevation in 1321N1 astrocytoma cells expressing turkey P2Y1 receptor; type: cell-based; conditions: 1321N1 astrocytoma cells stably transfected with turkey P2Y1 receptor, fura-2, 37 °C; for EC50: read-out: EC50 for [Ca2+]i elevation, P2Y1
Sequence of tP2Y1 receptor (P49652 whole entry): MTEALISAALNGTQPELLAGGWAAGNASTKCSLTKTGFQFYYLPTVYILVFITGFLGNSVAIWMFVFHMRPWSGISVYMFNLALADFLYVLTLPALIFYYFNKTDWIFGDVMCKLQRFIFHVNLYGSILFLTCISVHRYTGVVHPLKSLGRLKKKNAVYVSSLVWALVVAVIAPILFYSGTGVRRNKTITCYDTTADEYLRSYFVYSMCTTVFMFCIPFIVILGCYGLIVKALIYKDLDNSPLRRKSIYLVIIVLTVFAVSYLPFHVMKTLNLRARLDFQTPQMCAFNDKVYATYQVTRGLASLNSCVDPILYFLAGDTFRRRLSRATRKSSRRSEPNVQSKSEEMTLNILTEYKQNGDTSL

human e-NPP1 = biological target: T1, human e-NPP1 (Homo sapiens, UniProt P22413); assay: Hydrolysis of dinucleotides by human e-NPP1; type: in vitro ADME; conditions: over 20 min at 37 °C, pH 8.5
T1 sequence (P22413 1-925): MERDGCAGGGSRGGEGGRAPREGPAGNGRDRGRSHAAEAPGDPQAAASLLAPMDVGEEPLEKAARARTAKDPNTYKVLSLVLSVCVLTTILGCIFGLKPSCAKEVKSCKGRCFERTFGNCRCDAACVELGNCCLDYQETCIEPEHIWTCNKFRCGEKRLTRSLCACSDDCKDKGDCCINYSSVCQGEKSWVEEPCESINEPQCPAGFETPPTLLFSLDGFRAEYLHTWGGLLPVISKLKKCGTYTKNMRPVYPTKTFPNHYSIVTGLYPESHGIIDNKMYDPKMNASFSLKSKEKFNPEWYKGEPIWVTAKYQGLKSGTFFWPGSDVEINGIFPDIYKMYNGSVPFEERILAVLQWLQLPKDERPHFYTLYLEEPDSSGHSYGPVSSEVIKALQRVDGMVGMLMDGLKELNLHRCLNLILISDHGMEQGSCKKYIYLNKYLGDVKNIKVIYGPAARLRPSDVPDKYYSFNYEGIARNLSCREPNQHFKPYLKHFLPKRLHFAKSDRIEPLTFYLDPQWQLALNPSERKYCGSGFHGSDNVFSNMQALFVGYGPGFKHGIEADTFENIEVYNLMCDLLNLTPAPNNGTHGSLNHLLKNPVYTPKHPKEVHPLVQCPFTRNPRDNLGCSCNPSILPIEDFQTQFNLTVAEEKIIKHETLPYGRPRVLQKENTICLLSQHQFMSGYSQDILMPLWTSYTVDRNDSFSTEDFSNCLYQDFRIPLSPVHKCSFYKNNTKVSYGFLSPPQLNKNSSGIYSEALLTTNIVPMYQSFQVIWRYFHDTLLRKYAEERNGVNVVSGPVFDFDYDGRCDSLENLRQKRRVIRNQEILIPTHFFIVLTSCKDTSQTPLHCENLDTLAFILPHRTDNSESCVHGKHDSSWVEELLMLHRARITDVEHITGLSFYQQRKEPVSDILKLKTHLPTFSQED

P2Y2R = conditions: read-out: EC50 at P2Y2R; cited from earlier work

SMILES: CSc1nc(N)c2ncn([C@@H]3O[C@H](COP(=O)(O)OP(=O)(O)O)[C@@H](O)[C@H]3O)c2n1 [Analogue 2-SMe-ADP]
- EC50 (rP2Y1-GFP receptor): 100 nM

SMILES: [BH3-][P+](O)(OP(=O)(O)OC[C@H]1O[C@@H](n2ccc(=O)[nH]c2=O)[C@H](O)[C@@H]1O)OP(=O)(O)OP(=O)(O)OC[C@H]1O[C@@H](n2ccc(=O)[nH]c2=O)[C@H](O)[C@@H]1O (some centres unmarked) [Analogue 7A, P^2-Borano-P^1,P^4-di(5′-uridine)tetraphosphate]
- EC50 (tP2Y1 receptor): > 100 µM

SMILES: [BH3-][P+](O)(OP(=O)(O)OC[C@H]1O[C@@H](n2cnc3c(N)ncnc32)[C@H](O)[C@@H]1O)OP(=O)(O)OP(=O)(O)OC[C@H]1O[C@@H](n2ccc(=O)[nH]c2=O)[C@H](O)[C@@H]1O (some centres unmarked) [Analogue 8, P^3-Borano-P^1,P^4-5′-uridine-5′-adenosinetetraphosphate]
- EC50 for [Ca2+]i elevation, P2Y1 (tP2Y1 receptor; listed as Ap4(β-B)U): inactive

SMILES: [BH3-][P+](O)(OP(=O)(O)OC[C@H]1O[C@@H](n2cnc3c(N)ncnc32)[C@H](O)[C@@H]1O)OP(=O)(O)OP(=O)(O)OC[C@H]1O[C@@H](n2ccc(=O)[nH]c2=O)[C@H](O)[C@@H]1O (some centres unmarked) [Analogue 8A, P^3-Borano-P^1,P^4-5′-uridine-5′-adenosinetetraphosphate]
- EC50 (tP2Y1 receptor): > 100 µM

- percentage of the compound hydrolyzed by human e-NPP1 (human e-NPP1): completely resistant to hydrolysis
SMILES: BP(=O)(OC[C@H]1O[C@@H](n2cnc3c(N)ncnc32)[C@H](O)[C@@H]1O)OP(=O)(O)OP(=O)(O)OC[C@H]1O[C@@H](n2cnc3c(N)ncnc32)[C@H](O)[C@@H]1O (some centres unmarked) [Analogue 10A, P^1-Borano-P^1,P^3-5′-diadenosinetriphosphate]

- percentage of the compound hydrolyzed by human e-NPP1 (human e-NPP1): completely resistant to hydrolysis
SMILES: BP(=O)(OC[C@H]1O[C@@H](n2ccc(=O)[nH]c2=O)[C@H](O)[C@@H]1O)OP(=O)(O)OP(=O)(O)OC[C@H]1O[C@@H](n2ccc(=O)[nH]c2=O)[C@H](O)[C@@H]1O (some centres unmarked) [Analogue 11A, P^1-Borano-P^1,P^3-5′-diuridinetriphosphate]

SMILES: BP(=O)(OC[C@H]1O[C@@H](n2ccc(=O)[nH]c2=O)[C@H](O)[C@@H]1O)OP(=O)(O)OP(=O)(O)OP(=O)(O)OC[C@H]1O[C@@H](n2ccc(=O)[nH]c2=O)[C@H](O)[C@@H]1O (some centres unmarked) [Analogue 13A, P^1-Borano-P^1,P^4-5′-diuridinetetraphosphate]
- EC50 (tP2Y1 receptor): > 100 µM

SMILES: O=c1ccn([C@@H]2O[C@H](COP(=O)(O)OP(=O)(O)OP(=O)(O)O)[C@@H](O)[C@H]2O)c(=O)[nH]1 [UTP, uridine 5′-triphosphate]
- EC50 (P2Y2R): 15 nM
